Assay results from ChEMBL document CHEMBL3044668, “Synthesis of (substituted benzamidostyryl) lH-benzimidazoles and their screening for anti-inflammatory activity” (Med Chem Res, 2012).

Assays:
Rattus norvegicus [1] = test: Gastrointestinal toxicity in Rattus norvegicus Wistar (rat) assessed as ulcer index at 20 mg/kg, po measured after 17 hr; format: organism-based; set-up: dose 20 mg/kg, route oral; details: in vivo
Rattus norvegicus [2] = test: Anti-inflammatory activity against Rattus norvegicus Wistar albino (rat) assessed as inhibition of carrageenan-induced paw edema at 10 mg/kg, ip measured 4 hr after carrageenan challenge by plethysmometer; format: functional; details: route intraperitoneal
Rattus norvegicus [3] = test: Anti-inflammatory activity against Rattus norvegicus Wistar albino (rat) assessed as inhibition of carrageenan-induced paw edema at 10 mg/kg, ip measured 3 hr after carrageenan challenge by plethysmometer; format: functional; details: route intraperitoneal
Rattus norvegicus [4] = test: Anti-inflammatory activity against Rattus norvegicus Wistar albino (rat) assessed as inhibition of carrageenan-induced paw edema at 20 mg/kg, ip measured 4 hr after carrageenan challenge by plethysmometer; format: functional; details: route intraperitoneal
Rattus norvegicus [5] = test: Anti-inflammatory activity against Rattus norvegicus Wistar albino (rat) assessed as inhibition of carrageenan-induced paw edema at 20 mg/kg, ip measured 3 hr after carrageenan challenge by plethysmometer; format: functional; details: route intraperitoneal
Rattus norvegicus [6] = test: Gastrointestinal toxicity in Rattus norvegicus Wistar (rat) assessed as ulcer index at 30 mg/kg, po measured after 17 hr; format: organism-based; set-up: dose 30 mg/kg, route oral; details: in vivo

Structure (SMILES) | UI (Rattus norvegicus [1]) | inhibition in vivo at 10 mg/kg (Rattus norvegicus [2]) [%] | inhibition in vivo at 10 mg/kg (Rattus norvegicus [3]) [%] | inhibition in vivo at 20 mg/kg (Rattus norvegicus [4]) [%] | inhibition in vivo at 20 mg/kg (Rattus norvegicus [5]) [%] | UI (Rattus norvegicus [6])
COc1ccc2c(c1)c(CC(=O)O)c(C)n2C(=O)c1ccc(Cl)cc1 [INDOMETHACIN] | 4.5 | 77.2 | 48.5 | – | – | –
Cc1ccc2nc(/C(=C\c3ccccc3Cl)NC(=O)c3ccccc3)[nH]c2c1 | – | – | – | 50 | 36.4 | –
Cc1ccc(/C=C(/NC(=O)c2ccccc2)c2nc3ccccc3[nH]2)cc1 | – | – | – | 47.4 | 39.4 | 1
CN(C)c1ccc(/C=C(/NC(=O)c2ccccc2)c2nc3ccccc3[nH]2)cc1 | – | – | – | 34.6 | 18.2 | –
COc1ccc(/C=C(/NC(=O)c2ccccc2)c2nc3ccccc3[nH]2)cc1 | – | – | – | 35.9 | 39.4 | –
COc1ccc(/C=C(/NC(=O)c2ccccc2)c2nc3ccc([N+](=O)[O-])cc3[nH]2)cc1 | – | – | – | 51.3 | 24.2 | 1.41
COc1ccc(/C=C(/NC(=O)c2ccccc2)c2nc3ccc(C)cc3[nH]2)cc1 | – | – | – | 53.8 | 30.3 | –
O=C(N/C(=C/c1ccccc1Cl)c1nc2ccccc2[nH]1)c1ccccc1 | – | – | – | 43.6 | 30.3 | –
O=C(N/C(=C/c1ccc(O)cc1)c1nc2ccccc2[nH]1)c1ccccc1 | – | – | – | 47.4 | 27.3 | –
O=C(N/C(=C/c1ccccc1)c1nc2ccccc2[nH]1)c1ccccc1 | – | – | – | 46.1 | 39.4 | –
Cc1ccc2nc(/C(=C\c3ccccc3)NC(=O)c3ccccc3)[nH]c2c1 | – | – | – | 46.1 | 27.3 | –
O=C(N/C(=C/c1ccccc1Cl)c1nc2ccc([N+](=O)[O-])cc2[nH]1)c1ccccc1 | – | – | – | 59 | 42.4 | 0.75
O=C(N/C(=C/c1ccccc1)c1nc2ccc([N+](=O)[O-])cc2[nH]1)c1ccccc1 | – | – | – | 50 | 33.3 | –
